Assay results from article PMC11106739, “Discovery and Derivatization of Tridecaptin Antibiotics with Altered Host Specificity and Enhanced Bioactivity” (ACS Chemical Biology, 2024).
Values after ≈ are worked out from the molar mass of the structure shown. Where a SMILES comes first, the peptide text is derived from it. [ ]: non-standard residue; d: D form. The star is where a group is joined. d(aIle) = CC[C@H](C)[C@@H](N)C(=O)O; dDab = NCC[C@@H](N)C(=O)O; Octanoyl = CCCCCCCC(=O)*; Dab = NCC[C@H](N)C(=O)O

Experiments:
ATCC 25922 = format: cell-based, Enterococcus faecalis; details: ATCC 25922, 20 h
Experimental: (§1) All minimum inhibitory concentrations (MICs) were determined according to the Clinical and Standards Laboratory Institute (CLSI) guidelines. In brief, agar plates were inoculated from glycerol stocks and incubated overnight at 35 °C. Peptide DMSO stocks were dispensed into 96-well round-bottom plates using a TECAN D300e dispenser. Colistin sulfate (Sigma-Aldrich) was dissolved in water and serially diluted in a cation-adjusted Mueller Hinton broth (10 μL per well). Final concentrations of the test compounds were 0.06 to 64 μg/mL. Inocula were prepared by direct colony suspension in NaCl at 0.5 MacFarland, which was further diluted 200-fold in cation-adjusted Mueller Hinton broth for a target inoculum of 2 × 10^5 colony forming units (CFUs)/mL. 100 μL portion of the prepared inoculum was added to each well of the prepared plates containing the test compounds. Plates were sealed with parafilm and incubated for 20 h at 35 °C. Images of all plates were recorded, and MIC was assessed visually.

E. faecalis ATCC 29212 = format: cell-based, Enterococcus faecalis; details: ATCC 29212, 20 h
Experimental: as §1

[1] = tested on: Gram-positive bacteria (Staphylococcus aureus, Enterococcus faecalis, Enterococcus faecium); test: MIC, summary over Gram-positive strains; format: cell-based; details: at a concentration of 64 μg/mL; summary of Table 2
Experimental: as §1

E. faecium IHMA 890472 = format: cell-based, Enterococcus faecium; details: IHMA 890472, 20 h
Experimental: as §1

E. faecium ATCC 51559 = format: cell-based, Enterococcus faecium; details: ATCC 51559, 20 h
Experimental: as §1

Rabbit red blood cells = test: Hemolysis assay; format: cell-based; details: rabbit red blood cells in PBS, 37 °C, 1 h, absorbance at 405 nm, normalization to the Triton X-100 control; 0.25 to 128 μg/mL tested
Experimental: Peptides, dissolved in DMSO, were dispensed into 96-well round-bottom microplates using a TECAN D300e dispenser and subsequently diluted with 100 μL of PBS. PBS or 2% Triton X-100 was used as negative and positive controls, respectively. Rabbit red blood cells (BioConcept) were diluted in PBS to a final concentration of 2%, and 100 μL was added to each well of the prepared 96-well plates. The final concentration of the test compounds was 0.25 to 128 μg/mL. Plates were incubated at 37 °C for 1 h and afterward subjected to centrifugation at 1000g for 5 min. Then, 30 μL of supernatant was transferred to a new round-bottom plate, and absorbance was measured at 405 nm (TECAN Infinite F200). EC50s were calculated after blank subtraction and normalization to the Triton control.

A. baumannii ATCC 17978 = format: cell-based, Acinetobacter baumannii; details: ATCC 17978, 20 h
Experimental: as §1

A. baumannii HUMC1 = format: cell-based, Acinetobacter baumannii; details: HUMC1, 20 h
Experimental: as §1

A. baumannii IHMA 777621 = format: cell-based, Acinetobacter baumannii; details: IHMA 777621, 20 h
Experimental: as §1

E. coli ATCC 25922 = format: cell-based, Escherichia coli; details: ATCC 25922, 20 h
Experimental: as §1

E. coli 1220120 = format: cell-based, Escherichia coli; details: 1220120, 20 h
Experimental: as §1

E. coli 1214245 = format: cell-based, Escherichia coli; details: 1214245, 20 h
Experimental: as §1

[2] = tested on: Gram-negative ESKAPE pathogens; format: cell-based; details: 20 h
Experimental: as §1

K. pneumoniae ATCC 13883 = format: cell-based, Klebsiella pneumoniae; details: ATCC 13883, 20 h
Experimental: as §1

K. pneumoniae 1228586 = format: cell-based, Klebsiella pneumoniae; details: 1228586, 20 h
Experimental: as §1

K. pneumoniae 1227947 = format: cell-based, Klebsiella pneumoniae; details: 1227947, 20 h
Experimental: as §1

P. aeruginosa 1226072 = format: cell-based, Pseudomonas aeruginosa; details: 1226072, 20 h
Experimental: as §1

P. aeruginosa PAO1 = format: cell-based, Pseudomonas aeruginosa; details: PAO1, 20 h
Experimental: as §1

P. aeruginosa 1218019 = format: cell-based, Pseudomonas aeruginosa; details: 1218019, 20 h
Experimental: as §1

HepG2 cells = test: Cytotoxicity determination (CellTiter-Glo); format: cell-based; details: HepG2, medium without serum, 24 h, normalization to the untreated control, 1 to 128 μg/mL tested
Experimental: HepG2 cells were grown in EMEM (Sigma) supplemented with 2 mM glutamine and 10% fetal bovine serum (Fisher) at 37 °C, 5% CO2. 20′000 cells per well were seeded into clear tissue culture-treated 96-well plates and incubated for 24 h. Peptides, dissolved in DMSO, were dispensed into 96 deep well plates (TECAN D300e dispenser) and diluted to a final concentration of 1 to 128 μg/mL using fresh medium without serum. The next day, the old media were removed from the cells, and 200 μL of the prepared compound dilutions was added per well. Plates were incubated for another 24 h before assessing the cell viability using the CellTiter-Glo kit (Promega) according to the manufacturer’s protocol. IC50s were calculated after normalization to the untreated control.

S. aureus 1126387 = format: cell-based, Staphylococcus aureus; details: 1126387, 20 h
Experimental: as §1

S. aureus UAMS-1625 = format: cell-based, Staphylococcus aureus; details: S. aureus UAMS-1625 (BV18); CLSI broth dilution, cation-adjusted Mueller Hinton broth, 20 h, 35 °C, read visually
Experimental: as §1

S. aureus ATCC 29213 = format: cell-based, Staphylococcus aureus; details: ATCC 29213, 20 h
Experimental: as §1

SMILES	MIC (ATCC 25922) [µg/mL]	MIC (E. faecalis ATCC 29212) [µg/mL]	MIC (E. faecium IHMA 890472) [µg/mL]	MIC (E. faecium ATCC 51559) [µg/mL]	Hemolysis EC50 (Rabbit red blood cells) [µg/mL]	MIC (A. baumannii ATCC 17978) [µg/mL]	MIC (A. baumannii HUMC1) [µg/mL]	MIC (A. baumannii IHMA 777621) [µg/mL]	MIC (E. coli ATCC 25922) [µg/mL]	MIC (E. coli 1220120) [µg/mL]	MIC (E. coli 1214245) [µg/mL]	MIC (K. pneumoniae ATCC 13883) [µg/mL]	MIC (K. pneumoniae 1228586) [µg/mL]	MIC (K. pneumoniae 1227947) [µg/mL]	MIC (P. aeruginosa 1226072) [µg/mL]	MIC (P. aeruginosa PAO1) [µg/mL]	MIC (P. aeruginosa 1218019) [µg/mL]	IC50 on HepG2 w/o FCS (HepG2 cells) [µg/mL]	MIC (S. aureus 1126387) [µg/mL]	MIC (S. aureus UAMS-1625) [µg/mL]	further results
CCCCCCCC(=O)N[C@@H](C(=O)N[C@H](CCN)C(=O)NCC(=O)N[C@H](CO)C(=O)N[C@H](Cc1c[nH]c2ccccc12)C(=O)N[C@@H](CO)C(=O)N[C@@H](CCN)C(=O)N[C@H](CCN)C(=O)N[C@@H](C)C(=O)N[C@@H](CCC(=O)O)C(=O)N[C@H](C(=O)N[C@@H](C(=O)N[C@@H](C)C(=O)O)[C@@H](C)CC)C(C)C)C(C)C [Oct-Ala9] (Octanoyl-[dV][dDab]G[dS][dW]S[Dab][dDab]AEV[d(aIle)]A-OH)	>64	>64	>64	>64	>128	>64	>64	>64	16 (≈ 11.1 µM)	8 (≈ 5.54 µM)	16 (≈ 11.1 µM)	8 (≈ 5.54 µM)	8 (≈ 5.54 µM)	16 (≈ 11.1 µM)	32 (≈ 22.1 µM)	64 (≈ 44.3 µM)	>64	>128	>64	>64	antibacterial activity against Gram-positive bacteria [1]: no antibacterial activity; MICs, range over Gram-negative pathogens [2]: 8 to 64 µg/mL; MIC (S. aureus ATCC 29213): >64 µg/mL
CCCCCCCC(=O)N[C@@H](C(=O)N[C@H](CCN)C(=O)NCC(=O)N[C@H](CO)C(=O)N[C@H](Cc1c[nH]c2ccccc12)C(=O)N[C@@H](CO)C(=O)N[C@@H](CCN)C(=O)N[C@H](CCN)C(=O)N[C@@H](CCC(=O)O)C(=O)N[C@@H](CCC(=O)O)C(=O)N[C@H](C(=O)N[C@@H](C(=O)N[C@@H](C)C(=O)O)[C@@H](C)CC)C(C)C)C(C)C [Oct-Glu9] (Octanoyl-[dV][dDab]G[dS][dW]S[Dab][dDab]EEV[d(aIle)]A-OH)	>64	>64	>64	>64	>128	>64	>64	>64	>64	64 (≈ 42.6 µM)	>64	>64	>64	>64	>64	>64	>64	>128	>64	>64	antibacterial activity against Gram-positive bacteria [1]: no antibacterial activity; MICs, range over Gram-negative pathogens [2]: 8 to 64 µg/mL; MIC (S. aureus ATCC 29213): >64 µg/mL
CCCCCCCC(=O)N[C@@H](C(=O)N[C@H](CCN)C(=O)NCC(=O)N[C@H](CO)C(=O)N[C@H](Cc1c[nH]c2ccccc12)C(=O)N[C@@H](CO)C(=O)N[C@@H](CCN)C(=O)N[C@H](CCN)C(=O)N[C@H](C(=O)N[C@@H](CCC(=O)O)C(=O)N[C@H](C(=O)N[C@@H](C(=O)N[C@@H](C)C(=O)O)[C@@H](C)CC)C(C)C)C(C)C)C(C)C [Oct-Val9] (Octanoyl-[dV][dDab]G[dS][dW]S[Dab][dDab]VEV[d(aIle)]A-OH)	>64	64 (≈ 43.5 µM)	>64	64 (≈ 43.5 µM)	>128	32 (≈ 21.7 µM)	32 (≈ 21.7 µM)	32 (≈ 21.7 µM)	4 (≈ 2.72 µM)	4 (≈ 2.72 µM)	4 (≈ 2.72 µM)	2 (≈ 1.36 µM)	8 (≈ 5.43 µM)	8 (≈ 5.43 µM)	16 (≈ 10.9 µM)	64 (≈ 43.5 µM)	16 (≈ 10.9 µM)	>128	>64	>64	MIC (S. aureus ATCC 29213): >64 µg/mL
CCCCCCCC(=O)N[C@@H](C(=O)N[C@H](CCN)C(=O)NCC(=O)N[C@H](CO)C(=O)N[C@H](Cc1c[nH]c2ccccc12)C(=O)N[C@@H](CO)C(=O)N[C@@H](CCN)C(=O)N[C@H](CCN)C(=O)N[C@@H](Cc1c[nH]cn1)C(=O)N[C@@H](CCC(=O)O)C(=O)N[C@H](C(=O)N[C@@H](C(=O)N[C@@H](C)C(=O)O)[C@@H](C)CC)C(C)C)C(C)C [Oct-His9] (Octanoyl-[dV][dDab]G[dS][dW]S[Dab][dDab]HEV[d(aIle)]A-OH)	>64	>64	>64	>64	>128	>64	>64	>64	16 (≈ 10.6 µM)	8 (≈ 5.3 µM)	16 (≈ 10.6 µM)	16 (≈ 10.6 µM)	8 (≈ 5.3 µM)	32 (≈ 21.2 µM)	4 (≈ 2.65 µM)	32 (≈ 21.2 µM)	2 (≈ 1.32 µM)	>128	>64	>64	MIC (S. aureus ATCC 29213): >64 µg/mL
